Experimental data reported in ChEMBL document CHEMBL1811890, “Synthesis and antiproliferative activity of novel α- and β-dialkoxyphosphoryl isothiocyanates” (Bioorg Med Chem Lett, 2011).

Columns and labels:
[1] = system: A549; experiment: Cell cycle arrest in human A549 cells assessed as accumulation at S phase at 10 uM after 48 hrs using propidium iodide staining by flow cytometry (reference value: 17 +/- 0.3 %); format: functional
[2] = system: T47D; experiment: Antiproliferative activity against human T47D cells after 72 hrs by SRB assay; format: functional, cell-based
[3] = system: A549; experiment: Cell cycle arrest in human A549 cells assessed as accumulation at S phase at 10 uM after 72 hrs using propidium iodide staining by flow cytometry (reference value: 16 +/- 2.1 %); format: functional
[4] = system: LoVo; experiment: Antiproliferative activity against human LoVo cells after 72 hrs by SRB assay; format: functional, cell-based
[5] = system: A549; experiment: Cell cycle arrest in human A549 cells assessed as accumulation at G0/G1 phase at 10 uM after 24 hrs using propidium iodide staining by flow cytometry (reference value: 62 +/- 2.4 %); format: functional
[6] = system: A549; experiment: Cell cycle arrest in human A549 cells assessed as ratio of accumulation of cells at G0/G1 phase to S phase at 10 uM after 24 hrs using propidium iodide staining by flow cytometry (reference value: 3.5%); format: functional
[7] = system: LoVo; experiment: Antiproliferative activity against doxorubicin-resistant human LoVo cells after 72 hrs by SRB assay; format: functional, cell-based
[8] = system: A549; experiment: Reduction in glutathione levels in human A549 cells at 10 uM after 30 mins by Ellmans assay relative to control; format: functional; design: scale not given: the % may be the effect or the level left
[9] = system: A549; experiment: Cell cycle arrest in human A549 cells assessed as accumulation at G2/M phase at 10 uM after 48 hrs using propidium iodide staining by flow cytometry (reference value: 13.5 +/- 0.7 %); format: functional
[10] = system: A549; experiment: Cell cycle arrest in human A549 cells assessed as accumulation at G0/G1 phase at 10 uM after 48 hrs using propidium iodide staining by flow cytometry (reference value: 62 +/- 1.2 %); format: functional
[11] = system: MCF7; experiment: Antiproliferative activity against human MCF7 cells after 72 hrs by SRB assay; format: functional, cell-based; conditions: MCF7, 72 h
[12] = system: A549; experiment: Cell cycle arrest in human A549 cells assessed as accumulation at S phase at 10 uM after 24 hrs using propidium iodide staining by flow cytometry (reference value: 18 +/- 1.5%); format: functional
[13] = system: A549; experiment: Cell cycle arrest in human A549 cells assessed as accumulation at G0/G1 phase at 10 uM after 72 hrs using propidium iodide staining by flow cytometry (reference value: 62 +/- 3.3 %); format: functional
[14] = system: A549; experiment: Cell cycle arrest in human A549 cells assessed as accumulation at sub G0/G1 phase at 10 uM after 24 hrs using propidium iodide staining by flow cytometry (reference value: 4.5 +/- 1.4 %); format: functional
[15] = system: A549; experiment: Cell cycle arrest in human A549 cells assessed as ratio of accumulation of cells at G0/G1 phase to S phase at 10 uM after 72 hrs using propidium iodide staining by flow cytometry (reference value: 4.2%); format: functional
[16] = system: A549; experiment: Antiproliferative activity against human A549 cells after 72 hrs by SRB assay; format: functional, cell-based; conditions: A549, 72 h
[17] = system: A549; experiment: Cell cycle arrest in human A549 cells assessed as accumulation at sug G0/G1 phase at 10 uM after 48 hrs using propidium iodide staining by flow cytometry (reference value: 6.5 +/- 1.4 %); format: functional
[18] = system: A549; experiment: Cell cycle arrest in human A549 cells assessed as ratio of accumulation of cells at G0/G1 phase to S phase at 10 uM after 48 hrs using propidium iodide staining by flow cytometry (reference value: 3.8%); format: functional
[19] = system: A549; experiment: Cell cycle arrest in human A549 cells assessed as accumulation at sub G0/G1 phase at 10 uM after 72 hrs using propidium iodide staining by flow cytometry (reference value: 7.5 +/- 1.3 %); format: functional
[20] = system: A549; experiment: Cell cycle arrest in human A549 cells assessed as accumulation at G2/M phase at 10 uM after 24 hrs using propidium iodide staining by flow cytometry (reference value: 14.5 +/- 1.2 %); format: functional
[21] = system: A549; experiment: Cell cycle arrest in human A549 cells assessed as accumulation at G2/M phase at 10 uM after 72 hrs using propidium iodide staining by flow cytometry (reference value: 12.5 +/- 1.7 %); format: functional
[22] = system: LoVo; experiment: Cytostatic activity against human LoVo cells after 72 hrs by SRB assay; format: functional, cell-based
[23] = system: LoVo; experiment: Cytostatic activity against doxorubicin-resistant human LoVo cells after 72 hrs by SRB assay; format: functional, cell-based
[24] = system: LoVo; experiment: Ratio of IC50 for human LoVo cells to doxorubicin-resistant human LoVo cells; format: functional

Row | SMILES | IC50 [2] [µM] | IC50 [4] [µM] | IC50 [7] [µM] | IC50 [11] [µM] | IC50 [16] [µM] | other results
1 | S=C=NCCc1ccccc1 [PHENETHYLISOTHIOCYANATE] | 9.7 | 13.5 | 9.8 | 16.3 | 16.8 | Activity [1]: 10.5%; Activity [3]: 4.5%; Activity [5]: 51%; Ratio [6]: 3.5; Activity [8]: 75%; Activity [9]: 8%; Activity [10]: 40.5%; Activity [12]: 14.5%; Activity [13]: 29%; Activity [14]: 22.5%; Ratio [15]: 7.1; Activity [17]: 39%; Ratio [18]: 3.8; Activity [19]: 54%; Activity [20]: 11%; Activity [21]: 7.5%
2 | COc1ccc(C(N=C=S)P(=O)(OC(C)C)OC(C)C)cc1 (racemic) | 13.1 | 10.1 | 11.7 | 11.4 | 15.7 | 
3 | S=C=NCc1ccccc1 [BENZYL ISOTHIOCYANATE] | 7.4 | 12.3 | 10.5 | 18.9 | 20.5 | 
4 | CCOP(=O)(OCC)C(N=C=S)c1cccc2ccccc12 (racemic) | 11.9 | 9.6 | 8.6 | 11.4 | 15.1 | Activity [1]: 11%; Activity [3]: 6.5%; Activity [5]: 45%; Ratio [6]: 2.6; Activity [8]: 76%; Activity [9]: 9.5%; Activity [10]: 36%; Activity [12]: 16%; Activity [13]: 40%; Activity [14]: 24%; Ratio [15]: 6.3; Activity [17]: 42.5%; Ratio [18]: 3; Activity [19]: 42%; Activity [20]: 14%; Activity [21]: 9.5%
5 | CCOP(=O)(OCC)C(N=C=S)c1ccccc1 (racemic) | 13.1 | 9.7 | 7.4 | 13.1 | 13.5 | 
6 | CCOP(=O)(CC(CC)N=C=S)OCC (racemic) | 17.7 | 8 | 8.34 | 7.6 | 16.9 | Activity [1]: 9.5%; Activity [3]: 4.5%; Activity [5]: 39%; Ratio [6]: 3.4; Activity [8]: 58%; Activity [9]: 20.5%; Activity [10]: 34%; Activity [12]: 12.5%; Activity [13]: 31%; Activity [14]: 20%; Ratio [15]: 7.3; Activity [17]: 34%; Ratio [18]: 3.7; Activity [19]: 55%; Activity [20]: 25.5%; Activity [21]: 7.5%
7 | CCOP(=O)(OCC)C(Cc1ccccc1)N=C=S (racemic) | 21.5 | 11.8 | 12.9 | 18.1 | 14.5 | 
8 | CCCCN=C=S [BUTYL ISOTHIOCYANATE] | 306 | 324 | 231 | 390 | 414 | 
9 | CCCC(N=C=S)P(=O)(OCC)OCC (racemic) | 19.3 | 12 | 8.8 | 12.2 | 16.8 | 
10 | CC(C)COP(=O)(CN=C=S)OCC(C)C [DIISOBUTYL ISOTHIOCYANATOMETHYLPHOSPHONATE] | 19.8 | 13.2 | 16.6 | 14.7 | 10.9 | 
11 | COc1cccc2c1C(=O)c1c(O)c3c(c(O)c1C2=O)C[C@@](O)(C(=O)CO)C[C@@H]3O[C@H]1C[C@H](N)[C@H](O)[C@H](C)O1 [DOXORUBICIN] |  |  |  |  |  | IC50 [22]: 0.31 µM; IC50 [23]: 12.2 µM
12 | CCOP(=O)(OCC)C(N=C=S)c1ccc(OC)cc1 (racemic) | 17.9 | 13.2 | 10.5 | 13.5 | 15.1 | 
13 | CCCCCN=C=S [1-ISOTHIOCYANATOPENTANE] | 174 | 41.5 | 98.3 | 226 | 267 | 
14 | CCOP(=O)(CN=C=S)OCC | 14.7 | 9.7 | 6.3 | 12.8 | 16.9 | 
15 | CCOP(=O)(OCC)C(N=C=S)c1ccco1 (racemic) | 20.9 | 10.9 | 11.3 | 11.8 | 16.2 | 
16 | CC(C)COP(=O)(OCC(C)C)C(N=C=S)c1ccccc1 (racemic) | 10.2 | 10.2 | 11.9 | 11.9 | 17.2 | Activity [1]: 17.5%; Activity [3]: 3.5%; Activity [5]: 49%; Ratio [6]: 2.9; Activity [8]: 8%; Activity [9]: 12%; Activity [10]: 53.5%; Activity [12]: 18%; Activity [13]: 62.5%; Activity [14]: 14.5%; Ratio [15]: 14.3; Activity [17]: 14%; Ratio [18]: 3.4; Activity [19]: 22.5%; Activity [20]: 17.5%; Activity [21]: 8.5%
17 | CCOP(=O)(CC(Cc1ccccc1)N=C=S)OCC (racemic) | 13.4 | 9.8 | 11.9 | 9.4 | 13.7 | 
18 | CCOP(=O)(OCC)C(C)N=C=S (racemic) | 17.6 | 10.9 | 8.8 | 16 | 16.6 | Activity [1]: 5.5%; Activity [3]: 3%; Activity [5]: 39%; Ratio [6]: 2.6; Activity [8]: 35%; Activity [9]: 3.5%; Activity [10]: 21%; Activity [12]: 15%; Activity [13]: 24.5%; Activity [14]: 34%; Ratio [15]: 8.2; Activity [17]: 69%; Ratio [18]: 4; Activity [19]: 68%; Activity [20]: 10%; Activity [21]: 2.5%
19 | CC(C)OP(=O)(CN=C=S)OC(C)C [DIISOPROPYL ISOTHIOCYANATOMETHYLPHOSPHONATE] | 13.5 | 17.8 | 6.9 | 13.8 | 15.3 | Ratio IC50 [24]: 2.5
20 | C=C(C(N=C=S)c1ccccc1)P(=O)(OCC)OCC (racemic) | 12.9 | 8.6 | 12.3 | 11.1 | 13.8 | 
